Results reported in BigSolDB 2.1.

O=C(Nc1ccccc1)c1ccccc1O
solubility (mole fraction)
Conditions	283.15 K	288.15 K	293.15 K	298.15 K	303.15 K	308.15 K	313.15 K	318.15 K	323.15 K
in acetonitrile	0.0129	0.0153	0.0181	0.0217	0.0258	0.0307	0.0359	0.0423	0.0485
in ethanol	0.0185	0.0207	0.0235	0.0273	0.0322	0.0366	0.0425	0.0487	0.0572
in ethyl acetate	0.0344	0.039	0.0432	0.0486	0.0554	0.0635	0.0709	0.0808	0.0892
in ethyl formate	0.0195	0.0219	0.0248	0.0293	0.0334	0.041	0.0488	0.0585	0.0681
in isopropanol	0.0169	0.0199	0.0225	0.0265	0.0315	0.036	0.041	0.0473	0.053
in isopropyl acetate	0.0281	0.031	0.0352	0.0389	0.0439	0.0502	0.0567	0.0638	0.0709
in methyl acetate	0.0366	0.0408	0.0443	0.05	0.0568	0.0658	0.0766	0.0879	0.101
in n-butanol	0.013	0.0155	0.0178	0.021	0.0247	0.0292	0.0346	0.0403	0.0467
in n-butyl acetate	0.028	0.0311	0.0349	0.0388	0.0435	0.049	0.0545	0.061	0.0686
in n-pentanol	0.014	0.0157	0.0181	0.0206	0.0238	0.0281	0.0338	0.0396	0.0459
in n-propanol	0.0134	0.0168	0.0199	0.0229	0.0266	0.0314	0.0363	0.0418	0.0479
in n-propyl acetate	0.0303	0.0347	0.0378	0.0435	0.0483	0.0542	0.0616	0.0703	0.0796
